These results are taken from patent US11058756B2, “Compositions and methods of treating autoimmune disease by reducing enterococcus” (YALE UNIVERSITY, priority 2017, dated 2021).

The subject of assay [1] is (NZWxBXSB)F1 mice. Put plainly: Oral antibiotics in drinking water: mortality, clinical outcome, proteinuria and organ histology in the autoimmune hybrid model. In kind it is in vivo, mouse. The source says: 6-week-old male (NZWxBXSB)F1 mice and C57BL/6J mice were used in this study except if noted otherwise. (NZWxBXSB)F1 were bred by mating NZW/LaJ females with BXSB/MpJ males obtained from Jackson Laboratory (Bar Harbor, Me., USA). Parental littermates of (NZWxBXSB)F1 were randomly mixed with littermates from other parental cages 21 days after birth to equilibrate the microbiomes from different cages and parental origin. All mice were maintained in a specific-pathogen-free environment. (NZWxBXSB)F1 mice were provided with water and a standard laboratory diet ad libitum (2018 Harlan Teklad, South Easton, Mass., USA). They were supplied with hardwood chips as bedding and were housed in a temperature-controlled, air-conditioned room on a 12-hr light-dark cycle. Germ-free (GF) C57BL/6 mice were kept under sterile conditions in CBC's (Class Biologically Clean, Madison, Wis., USA) Quad flexible film isolators (Softwall), exposed to a 12-hr light/dark cycle and provided standard, autoclaved tap water and mouse chow (2018S Harlan Teklad, South Easton, Mass., USA) ad libitum. To exclude a Th17 bias, a PCR for segmented filamentous bacteria (SFB) was performed on fecal DNA from all mice involving Th17 studies. Fecal SFB detection at 6-8 weeks of age that correlates with ileal SFB colonization was performed as described (Barman et al., 2008, Infect Immun, 76, 907-915; Kriegel et al., 2011, Proc Natl Acad Sci USA, 108, 11548-11553). All Th17 data was derived from SFB-negative animals.
(§1) Mice were cohoused for 3 to 4 weeks before antibiotic treatment to allow for equilibration of the microbiota. Single antibiotic or broad-spectrum antibiotic administration consisted of metronidazole (1 g/liter; Fisher Scientific), neomycin (1 g/liter; Fisher Scientific), ampicillin (1 g/liter; Sigma) and vancomycin (0.5 g/liter; Acros Organics) in the drinking water for up to 22 weeks or a targeted regiment for 2 weeks and then replaced with regular water for the duration of the experiment. For broad-spectrum antibiotic experiments (vancomycin, ampicillin, metronidazole, and neomycin combined), sweetener (Equal, 4 g/L) was added to both the antibiotics and control water due to the metallic taste of metronidazole. Twenty-four hours after cessation of antibiotic water, mice were administered 1×10^6 CFUs of vancomycin-resistant E. gallinarum via oral gavage, isolated from liver tissue of a vancomycin-treated mouse that continued to show signs of autoimmune disease (high-level resistance was confirmed by vanC gene PCR). E. gallinarum was grown at 37° C. in Gifu Anaerobic Broth (HIMEDIA Laboratories) to early stationary phase under anaerobic conditions (82% N2, 15% CO2, 3% H2 by volume) in an anaerobic chamber and diluted in PBS to 10^7 CFUs.
Samples were obtained at autopsy and fixed in 10% neutral formalin, and histological sections were stained with hematoxylin and eosin (H&E) and scored in a blinded fashion. Glomerulonephritis was scored on a scale of 0-4 based on the intensity and extent of histopathological changes (Klopfleisch, 2013, BMC Vet Res, 9, 123). A grade of 0 was given to kidneys without glomerular lesions; grade 1 consisted of minimal thickening of the mesangium; grade 2 contained noticeable increases in both mesangial and glomerular cellularity; grade 3 was characterized by the preceding conditions with superimposed inflammatory exudates and capsular adhesions; and grade 4 consisted of obliterated glomerular architecture in greater than 70% of glomeruli. […]

The test system of another assay is E. gallinarum. Put plainly: Assessment of bacterial translocation and tissue burden (anaerobic tissue cultures, CFU). In kind it is in vivo, mouse. The conditions noted are these: (NZWxBXSB)F1 mice, antibiotics in drinking water; 16-18 weeks of age; FIG. 1K-1N.
A further assay addresses T1, AhR (Mus musculus, UniProt P30561).
T1 construct: mice were injected i.p. with 300 mg of CH223191 (a selective AhR antagonist; Sigma-Aldrich) or mock 5 days a week; from tissue; host or cells: whole animal: (NZWxBXSB)F1 hybrid mice
T1 sequence (P30561 10-848): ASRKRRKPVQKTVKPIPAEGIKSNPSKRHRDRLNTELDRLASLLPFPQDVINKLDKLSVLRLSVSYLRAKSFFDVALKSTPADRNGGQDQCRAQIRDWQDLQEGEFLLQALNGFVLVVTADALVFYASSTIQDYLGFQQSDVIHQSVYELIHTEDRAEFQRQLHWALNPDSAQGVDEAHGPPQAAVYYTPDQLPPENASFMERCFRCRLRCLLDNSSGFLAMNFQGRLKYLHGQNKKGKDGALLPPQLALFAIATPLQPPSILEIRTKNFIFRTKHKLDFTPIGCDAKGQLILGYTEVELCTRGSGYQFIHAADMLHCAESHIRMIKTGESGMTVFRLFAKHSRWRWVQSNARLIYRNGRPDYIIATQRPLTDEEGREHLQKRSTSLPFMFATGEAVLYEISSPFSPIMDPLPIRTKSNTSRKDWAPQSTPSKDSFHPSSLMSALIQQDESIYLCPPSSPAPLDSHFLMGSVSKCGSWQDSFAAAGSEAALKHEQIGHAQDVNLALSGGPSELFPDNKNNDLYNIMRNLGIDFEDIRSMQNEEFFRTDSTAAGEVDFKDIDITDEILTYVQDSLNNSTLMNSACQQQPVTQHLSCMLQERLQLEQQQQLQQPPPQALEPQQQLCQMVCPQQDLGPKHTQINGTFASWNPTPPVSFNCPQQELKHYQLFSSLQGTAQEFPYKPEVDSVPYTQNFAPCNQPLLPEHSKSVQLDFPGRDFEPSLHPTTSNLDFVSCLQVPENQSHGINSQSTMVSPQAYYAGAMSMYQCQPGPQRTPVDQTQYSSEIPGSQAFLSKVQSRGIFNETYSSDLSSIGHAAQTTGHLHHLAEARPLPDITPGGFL
Put plainly: AhR antagonist experiment in E. gallinarum-gavaged (NZWxBXSB)F1 mice. In kind it is in vivo. The conditions noted are these: 4 weeks; for Th17-inducing effects of E. gallinarum (MLN Th17 cell frequency): CH223191 i.p. 300 μg/mouse/day, 5 days a week, ABX-pretreated, E. gallinarum gavaged, FIG. 20; for autoantibodies-inducing effects of E. gallinarum (serum anti-RNA and anti-dsDNA IgG): CH223191 i.p. 5 days a week, FIG. 4O-4P. Here is the method:
(§2) Serum antibodies specific for dsDNA and b2GPI were determined using standardized ELISAs (anti-dsDNA antibody, Abcam; and, Mouse/Rat Apolipoprotein H Antibody, R&D Systems; respectively). Anti-RNA was determined by ELISA using defined positive controls (Human/Mouse RNA Polymerase II Antibody, R&D systems). Anti-ERV gp70 ICs and ERV gp70 protein were determined by OD450 signal comparisons (Evans et al., 1990, J Virol, 64, 6176-6183). For anti-dsDNA ELISAs, DNA-BIND™ (Corning) plates were coated with 100 μg/ml salmon sperm DNA (Fisher Scientific) and blocked in 0.1M PBS, 3.0% BSA, 5.0% FBS. The serum was diluted 1:1000 for the assay and incubated for 1 hour at 37° C. Wells were washed and incubated for 1 hour at 37° C. with rabbit anti-mouse IgG (Fisher Scientific) conjugated to HRP and developed with TMB substrate solution. 2M sulfuric acid (Sigma) solution was used to stop development. The concentration of anti-dsDNA was determined by reading the absorbance at 450 nm/570 nm reference.
(§3) For anti-RNA ELISAs, DNA-BIND™ (Corning) plates were coated with […] yeast RNA (Ambion) and blocked in 0.1M PBS, 0.05% Tween-20, 5.0% FBS. The serum was diluted 1:1000 for the assay and incubated for 1 hour at 37° C. Wells were washed and incubated for 1 hour at 37° C. with rabbit anti-mouse IgG (Fisher Scientific) conjugated to HRP and developed with TMB substrate solution. 2M sulfuric acid (Sigma) solution was used to stop development. The concentration of anti-RNA IgG was determined by reading the absorbance at 450 nm/570 nm reference.
For direct ex vivo intracellular cytokine detection, cells isolated from small intestinal lamina propria, MLN or spleen were immediately treated with GolgiStop (BD Bioscience) and surface-stained in FACS buffer (PBS, 2% bovine serum albumin, 0.2 mg of sodium azide, 2 mM EDTA) for 30 minutes in the dark at room temperature with fluorescently conjugated antibodies specific for CD3, CD4, CD11b, CD11c, CD44, CD62L, CD19, CD45, CD45R (B220), CXCR5, GITR, IL-17, IFN-g, Ly6C, NK1.1, PDCA-1, PD-1 and PSGL-1. After staining for surface antigens, some B cells and T cells were stained for intracellular cytokines using intracellular cytokine fixation buffer (eBioscience) and fluorescently conjugated antibodies specific for IL-17, IFN-g and FoxP3 (eBioscience) for 30 minutes in the dark at room temperature. Cell viability was assessed with Zombie NIR Fixable Viability Kit (BioLegend).
(NZWxBXSB)F1 mice were treated with broad-spectrum antibiotics (vancomycin, ampicillin, neomycin and metronidazole) from 10 weeks to 14 weeks of age. 24 hours later mice were gavaged with E. gallinarum every week for 4 weeks. […]

Assay [2] has as its system (NZWxBXSB)F1 mice. Put plainly: Serum ELISAs for anti-dsDNA, anti-RNA, anti-β2GPI IgG, ERV gp70 protein and anti-ERV gp70 immune complexes. In kind it is in vivo, mouse. The conditions noted are these: single antibiotic in drinking water; 16 weeks of age; FIG. 1B-1C.
From the text: as §1, §2, §3
For anti-b2GPI ELISAs, Corning® 96-well EIA/RIA easy Wash™ clear flat-bottom polystyrene high-bind microplates were coated with […] recombinant b2GPI/ApoH (R&D Systems) and blocked in Pierce Protein-Free (PBS) Blocking Buffer (Thermo Scientific). The serum was diluted 1:100 for the assay and incubated at room temperature for 2 hours on a shaker. Wells were washed and incubated while shaking for 30 minutes at room temperature with goat anti-mouse IgG (Fisher Scientific) conjugated to HRP and developed with TMB substrate solution. 2M sulfuric acid (Sigma) solution was used to stop development. The concentration of anti-b2GPI was determined by reading the absorbance at 450 nm/650 nm reference. […]

Where [3] appears, read: listed as AHR-selective antagonist.

As to neomycin, the clinical outcomes in the assay with (NZWxBXSB)F1 mice [1] (neomycin 1.0 g/L in drinking water) is listed as “did not alter”. Further, the “Translocation (bacterial growth in mesenteric veins, MLN, liver, spleen)” value in the assay with E. gallinarum is reported as “only to a lesser degree”.
Regarding `Cc1ccccc1N=Nc1ccc(NC(=O)c2ccnn2C)c(C)c1` [CH223191], the “Th17-inducing effects of E. gallinarum (MLN Th17 cell frequency)” value on AhR is “reverses”; on AhR (setting [3]) it was “abrogated”. In addition, the “autoantibodies-inducing effects of E. gallinarum (serum anti-RNA and anti-dsDNA IgG)” value at AhR is given as “reverses”; on AhR (setting [3]), “abrogated”.
In the case of `CC1(C)S[C@@H]2[C@H](NC(=O)[C@H](N)c3ccccc3)C(=O)N2[C@H]1C(=O)O` [ampicillin], the Mortality result in the assay with (NZWxBXSB)F1 mice [1] (single antibiotic in drinking water from 6 weeks of age, followed for 30 weeks or until death, FIG. 1A) is “prevented”. The “autoimmune manifestations (proteinuria, organ histology scores)” value with (NZWxBXSB)F1 mice [1] (single antibiotic in drinking water, FIG. 1D-1I) is given as “prevented”. Also, the “lupus-related autoantibodies (serum anti-dsDNA and anti-RNA IgG)” value in the assay on (NZWxBXSB)F1 mice [2] is reported as “prevented”.
